Experimental data: publication PMC10354048 (Communications Chemistry, 2023)
Where no end group is shown, it is not given here. [ ]: non-standard residue; d: D form. Trp(1-Me) = Cn1cc(C[C@H](N)C(=O)O)c2ccccc21

B1: aureocin A53 (L-AucA, wild type) (natural protein)
chain: MSWLNFLKYIAKYGKKAVSAAWKYKGKVLEWLNVGPTLEWVWQKLKKIAGL
notes: also called AucA-wt; wild-type AucA; source: synthetic: native chemical ligation of two peptide segments and desulfurization, purified by semi-preparative HPLC
B2: AucA-W22L (natural protein)
chain: MSWLNFLKYIAKYGKKAVSAALKYKGKVLEWLNVGPTLEWVWQKLKKIAGL
notes: also called W22L variant; source: synthetic: automated SPPS on rink amide protide resin

Legend:
E. faecium CW130826 = assay: microbe, parasite or virus in culture; settings: broth microdilution per CSLI guidelines, Brain Heart Infusion broth, 5 × 10^5 CFU/mL, 37 °C, 20 h, range 64–0.125 µg/mL, triplicate
Procedure: (§1) Minimum Inhibitory Concentrations (MIC) were determined for each of the bacteriocins and controls using a broth microdilution method, as per CSLI guidelines for microbial susceptibility testing. The peptides were dissolved in sterile deionized water to prepare the working stocks, with concentrations determined by UV absorbance at 280 nm[56]. Overnight cultures from the strains of interest were incubated with shaking overnight at 37 °C. Cation-adjusted Mueller Hinton Broth 2 (MHB 2) was used for the S. aureus, and S. epidermidis strains and Brain Heart Infusion (BHI) broth was utilized for the E. faecalis and E. faecium strains. The cultures were prepared and diluted to the turbidity of a 0.5 McFarland standard using MHB or BHI fresh media. Increasing concentrations of the leaderless bacteriocins were added to a 96-well polypropylene plate. The range tested for each bacteriocin was 64–0.125 µg/mL. The bacterial culture was further diluted and mixed in a 1:1 ratio with the bacteriocin solution to yield a final concentration in the wells of 5 × 10^5 CFU/mL. […] A 1:1000 dilution of the growth control was prepared in the respective media and plated onto agar (100 μL) to ensure the correct inoculum concentration (5 × 10^5 CFU/mL indicated by ≈ 50 bacterial colonies). The 96-well and agar plates were incubated at 37 °C, and growth was assessed by the formation of a pellet observable with the naked eye after 20 h. […] Each assay was performed in triplicate.
(§2) Materials and instruments […]
(§3) Minimum Inhibitory Concentration (MIC) assays were conducted in 96-Well Clear polypropylene corner notch microplates (Corning, #11313595). For the assay media, cation adjusted Mueller Hinton Broth 2 (Sigma Aldrich, #90922) was used for the S. aureus, and S. epidermidis strains and Brain Heart Infusion broth (BD, #221812) was used for the E. faecalis and E. faecium […]
(§4) used, as well as melittin prepared by automated SPPS. Experimental bacterial strains used were procured from the American Type Culture collection (S. aureus 29213) and the Canadian Antimicrobial Resistance Alliance

S. epidermidis CW130500 = assay: microbe, parasite or virus in culture; settings: broth microdilution per CSLI guidelines, cation-adjusted Mueller Hinton Broth 2, 5 × 10^5 CFU/mL, 37 °C, 20 h, range 64–0.125 µg/mL, triplicate
Procedure: as §1, §2, §3, §4

E. faecalis CW133346 = assay: microbe, parasite or virus in culture; settings: broth microdilution per CSLI guidelines, Brain Heart Infusion broth, 5 × 10^5 CFU/mL, 37 °C, 20 h, range 64–0.125 µg/mL, triplicate
Procedure: as §1, §2, §3, §4

E. faecium CW131126 = assay: microbe, parasite or virus in culture; settings: broth microdilution per CSLI guidelines, Brain Heart Infusion broth, 5 × 10^5 CFU/mL, 37 °C, 20 h, range 64–0.125 µg/mL, triplicate
Procedure: as §1, §2, §3, §4

S. aureus CW115852 = assay: microbe, parasite or virus in culture; settings: broth microdilution per CSLI guidelines, cation-adjusted Mueller Hinton Broth 2, 5 × 10^5 CFU/mL, 37 °C, 20 h, range 64–0.125 µg/mL, average of three repeat assays
Procedure: (§5) Minimum inhibitory concentrations, determined by broth microdilution, are expressed as an average of three repeat assays. […] [a] MIC values expressed in μg/mL, [b] AC: American Type Culture Collection strain, [c] CW: CANWARD collection clinical isolate strain.33.
as §1, §2
(§6) Minimum Inhibitory Concentration (MIC)
(§7) assays were conducted in 96-Well Clear polypropylene corner notch microplates (Corning, #11313595). For the […]

S. epidermidis CW131612 = assay: microbe, parasite or virus in culture; settings: broth microdilution per CSLI guidelines, cation-adjusted Mueller Hinton Broth 2, 5 × 10^5 CFU/mL, 37 °C, 20 h, range 64–0.125 µg/mL, average of three repeat assays
Procedure: as §5, §1, §2, §6, §7

S. aureus CW113379 = assay: microbe, parasite or virus in culture; settings: broth microdilution per CSLI guidelines, cation-adjusted Mueller Hinton Broth 2, 5 × 10^5 CFU/mL, 37 °C, 20 h, range 64–0.125 µg/mL, average of three repeat assays
Procedure: as §5, §1, §2, §6, §7

S. aureus AC29213 = assay: microbe, parasite or virus in culture; settings: broth microdilution per CSLI guidelines, cation-adjusted Mueller Hinton Broth 2, 5 × 10^5 CFU/mL, 37 °C, 20 h, range 64–0.125 µg/mL, average of three repeat assays
Procedure: as §5, §1, §2, §6, §7

E. faecalis CW133003 = assay: microbe, parasite or virus in culture; settings: broth microdilution per CSLI guidelines, Brain Heart Infusion broth, 5 × 10^5 CFU/mL, 37 °C, 20 h, range 64–0.125 µg/mL, average of three repeat assays
Procedure: as §5, §1, §2, §6, §7

S. aureus CW114125 = assay: microbe, parasite or virus in culture; settings: broth microdilution per CSLI guidelines, cation-adjusted Mueller Hinton Broth 2, 5 × 10^5 CFU/mL, 37 °C, 20 h, range 64–0.125 µg/mL, average of three repeat assays
Procedure: as §5, §1, §2, §6, §7

[1] = target: the molecule itself; assay: SEC; analytical size exclusion chromatography in phosphate-buffered saline (pH 7.4), UV 210 nm

Row | Molecule | Minimum inhibitory concentration E. faecium CW130826 (E. faecium CW130826) | Minimum inhibitory concentration S. epidermidis CW130500 (S. epidermidis CW130500) | Minimum inhibitory concentration E. faecalis CW133346 (E. faecalis CW133346) | Minimum inhibitory concentration E. faecium CW131126 (E. faecium CW131126) | Minimum inhibitory concentration S. aureus CW115852 (S. aureus CW115852) | Minimum inhibitory concentration S. epidermidis CW131612 (S. epidermidis CW131612) | Minimum inhibitory concentration S. aureus CW113379 (S. aureus CW113379) | Minimum inhibitory concentration S. aureus AC29213 (S. aureus AC29213) | Minimum inhibitory concentration E. faecalis CW133003 (E. faecalis CW133003) | Minimum inhibitory concentration S. aureus CW114125 (S. aureus CW114125) | stoichiometry N [1] | binding result [1]
1 | MSWLNFLKYIAKYGKKAVSAAWKYKGKVLEWLNVGPTLEWVWQKLKKIAGL-NH2 [L-AucA, L-aureocin A53 (Met^1-Leu^51)] | 2 µg/mL | 4 µg/mL | 4 µg/mL | 2 µg/mL | 16 µg/mL | 4 µg/mL | 4 µg/mL | 4 µg/mL | 4 µg/mL | 4 µg/mL | – | –
2 | MS[Trp(1-Me)]LNFLKYIAKYGKKAVSAAWKYKGKVLEWLNVGPTLEWVWQKLKKIAGL-NH2 [L-^1MeW3, L-aureocin A53 ^1MeTrp3 (Met^1-Leu^51)] | 2 µg/mL | 4 µg/mL | 1 µg/mL | 2 µg/mL | 8 µg/mL | 8 µg/mL | 4 µg/mL | 4 µg/mL | 2 µg/mL | 4 µg/mL | – | –
3 | [dM][dA]G[dF][dL][dK][dV][dV][dQ][dL][dL][dA][dK][dY]G[dS][dK][dA][dV][dQ][dW][dA][dW][dA][dN][dK]G[dK][dI][dL][dD][dW][dL][dN][dA]G[dQ][dA][dI][dD][dW][dV][dV][dS][dK][dI][dK][dQ][dI][dL]G[dI][dK]-NH2 [D-LnqQ, D-lacticin Q (Met^1-Lys^53)] | 2 µg/mL | 4 µg/mL | 2 µg/mL | 2 µg/mL | 4 µg/mL | 4 µg/mL | 4 µg/mL | 4 µg/mL | 2 µg/mL | 8 µg/mL | – | –
4 | [dM][dS][dW][dL][dN][dF][dL][dK][dY][dI][dA][dK][dY]G[dK][dK][dA][dV][dS][dA][dA][dW][dK][dY][dK]G[dK][dV][dL][dE][dW][dL][dN][dV]G[dP][dT][dL][dE][dW][dV][dW][dQ][dK][dL][dK][dK][dI][dA]G[dL]-NH2 [D-AucA, D-aureocin A53 (Met^1-Leu^51)] | 2 µg/mL | 4 µg/mL | 4 µg/mL | 4 µg/mL | 2 µg/mL | 4 µg/mL | 4 µg/mL | 4 µg/mL | 4 µg/mL | 4 µg/mL | – | –
5 | B1 | – | – | – | – | – | – | – | – | – | – | 2 | –
6 | B2 | – | – | – | – | – | – | – | – | – | – | – | binds
